Results from PMC10140010 (Investigational New Drugs, 2023).
“And” between values parts separate entries of the source, which are not always exact repeats. Equal entries are not always repeated.

Columns and labels:
CYP1A2 = assay: Hepatic enzyme induction in human hepatocytes; assay type: in vitro ADME; details: 10 µM, human hepatocytes from three donors
Method: Human hepatocytes derived from three donors were used for evaluating for hepatic enzyme inducing activity. […] The gene expression related to cytochrome P450 isoenzyme CYP3A4 in hepatocytes of one of the three donors increased with iruplinalkib 1 µM.

P-gp = target: T1, P-gp (Homo sapiens, UniProt P08183); assay: ABC efflux transporter inhibitor test on Caco-2 cells (digoxin efflux); assay type: in vitro ADME
T1 construct: endogenous in cells; host or cells: Caco-2

MRP2 = target: T2, MRP2 (Homo sapiens, UniProt Q92887); assay: MRP2 inhibitor investigation; assay type: in vitro ADME
T2 construct: host or cells: membrane vesicles ('Membrane capsule'), MRP2 versus NC control, with ATP or AMP

OAT1 = assay: Uptake substrate investigation in HEK293 cells expressing transporter
From the text: The engineered NIH-3T3 (CD74-ROS1 fusion gene) cells was obtained from Nanjing GenScript Biotechnology Co., Ltd. The engineered Ba/F3 (SLC34A2-ROS1 fusion gene) cell line was obtained from Kyinno Biotechnology (Beijing) Co., Ltd. The HCC-78 (SLC34A2-ROS1 fusion gene) cell line was purchased from Shanghai Hongshun Biotechnology Co., Ltd. The engineered NIH-3T3 (CD74-ROS1 fusion gene) cells was obtained from Nanjing GenScript Biotechnology Co., Ltd. The engineered HEK293 cell lines with OATP1B1 (Lot. No ESH6G27), OATP1B3 (Lot. No ESH7G27), OCT2 (Lot. No ESH9G27), OAT1 (Lot. No ESHCG27), OAT3 (Lot. […] No ESHDG27) were purchased from GenoMembrane and validated using the specific substrate for each transporter. All cells were cultured at 37℃ in a 5% CO2 atmosphere. Cell culture reagents were obtained from Life Technologies, Inc. See Supplemental Table 1 for details on the source of the cell lines and the media used.

[1] = human, Caco-2 cells, probe digoxin (5 µM), read-out: Exhaust inhibition rate (%)
[2] = MOCK293, test substrate 10 μM, no inhibitor, OAT1 pre-test
[3] = OATP1B1-293 (so in the source), test substrate 10 μM, no inhibitor, OAT1 pre-test
[4] = transporter cells vs MOCK293, test substrate 10 μM, no inhibitor, OAT1 pre-test

T2 sequence (Q92887 whole entry): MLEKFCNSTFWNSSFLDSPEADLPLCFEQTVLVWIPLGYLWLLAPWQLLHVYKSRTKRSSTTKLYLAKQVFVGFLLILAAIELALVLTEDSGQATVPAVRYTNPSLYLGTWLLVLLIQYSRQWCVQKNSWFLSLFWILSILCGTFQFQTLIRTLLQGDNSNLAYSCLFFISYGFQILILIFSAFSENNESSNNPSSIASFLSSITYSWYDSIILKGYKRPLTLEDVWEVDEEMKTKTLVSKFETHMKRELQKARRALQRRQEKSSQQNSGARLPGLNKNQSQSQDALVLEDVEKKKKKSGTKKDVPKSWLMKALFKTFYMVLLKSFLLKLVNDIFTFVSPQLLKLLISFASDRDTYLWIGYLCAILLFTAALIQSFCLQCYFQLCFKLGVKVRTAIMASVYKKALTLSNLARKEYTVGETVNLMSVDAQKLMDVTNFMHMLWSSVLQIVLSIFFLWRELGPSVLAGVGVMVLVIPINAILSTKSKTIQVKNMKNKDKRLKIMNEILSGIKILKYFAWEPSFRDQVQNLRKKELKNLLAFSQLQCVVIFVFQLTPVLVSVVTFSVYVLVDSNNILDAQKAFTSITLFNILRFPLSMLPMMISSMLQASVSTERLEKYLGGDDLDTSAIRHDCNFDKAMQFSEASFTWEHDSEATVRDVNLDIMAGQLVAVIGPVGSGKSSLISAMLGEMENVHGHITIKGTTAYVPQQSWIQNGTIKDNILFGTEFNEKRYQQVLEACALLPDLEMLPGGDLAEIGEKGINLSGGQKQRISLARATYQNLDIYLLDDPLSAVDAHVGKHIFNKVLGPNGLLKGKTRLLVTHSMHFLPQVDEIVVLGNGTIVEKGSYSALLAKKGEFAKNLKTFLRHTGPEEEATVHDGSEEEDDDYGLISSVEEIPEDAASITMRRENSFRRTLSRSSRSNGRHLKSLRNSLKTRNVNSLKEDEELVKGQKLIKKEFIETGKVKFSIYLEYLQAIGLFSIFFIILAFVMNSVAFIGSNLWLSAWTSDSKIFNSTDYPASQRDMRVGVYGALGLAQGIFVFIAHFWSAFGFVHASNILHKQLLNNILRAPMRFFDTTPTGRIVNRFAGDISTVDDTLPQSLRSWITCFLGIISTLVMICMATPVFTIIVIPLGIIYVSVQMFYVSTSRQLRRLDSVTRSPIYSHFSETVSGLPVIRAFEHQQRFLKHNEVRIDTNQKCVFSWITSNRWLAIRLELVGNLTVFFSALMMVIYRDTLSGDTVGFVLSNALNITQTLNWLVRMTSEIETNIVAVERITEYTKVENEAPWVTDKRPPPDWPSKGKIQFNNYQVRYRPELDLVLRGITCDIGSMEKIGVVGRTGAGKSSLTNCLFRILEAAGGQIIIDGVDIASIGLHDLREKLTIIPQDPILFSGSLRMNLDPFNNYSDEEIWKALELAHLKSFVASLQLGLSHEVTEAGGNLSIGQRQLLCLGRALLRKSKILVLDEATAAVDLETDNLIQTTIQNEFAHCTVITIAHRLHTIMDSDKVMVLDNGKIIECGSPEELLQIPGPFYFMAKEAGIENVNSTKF
T1 sequence (P08183 whole entry): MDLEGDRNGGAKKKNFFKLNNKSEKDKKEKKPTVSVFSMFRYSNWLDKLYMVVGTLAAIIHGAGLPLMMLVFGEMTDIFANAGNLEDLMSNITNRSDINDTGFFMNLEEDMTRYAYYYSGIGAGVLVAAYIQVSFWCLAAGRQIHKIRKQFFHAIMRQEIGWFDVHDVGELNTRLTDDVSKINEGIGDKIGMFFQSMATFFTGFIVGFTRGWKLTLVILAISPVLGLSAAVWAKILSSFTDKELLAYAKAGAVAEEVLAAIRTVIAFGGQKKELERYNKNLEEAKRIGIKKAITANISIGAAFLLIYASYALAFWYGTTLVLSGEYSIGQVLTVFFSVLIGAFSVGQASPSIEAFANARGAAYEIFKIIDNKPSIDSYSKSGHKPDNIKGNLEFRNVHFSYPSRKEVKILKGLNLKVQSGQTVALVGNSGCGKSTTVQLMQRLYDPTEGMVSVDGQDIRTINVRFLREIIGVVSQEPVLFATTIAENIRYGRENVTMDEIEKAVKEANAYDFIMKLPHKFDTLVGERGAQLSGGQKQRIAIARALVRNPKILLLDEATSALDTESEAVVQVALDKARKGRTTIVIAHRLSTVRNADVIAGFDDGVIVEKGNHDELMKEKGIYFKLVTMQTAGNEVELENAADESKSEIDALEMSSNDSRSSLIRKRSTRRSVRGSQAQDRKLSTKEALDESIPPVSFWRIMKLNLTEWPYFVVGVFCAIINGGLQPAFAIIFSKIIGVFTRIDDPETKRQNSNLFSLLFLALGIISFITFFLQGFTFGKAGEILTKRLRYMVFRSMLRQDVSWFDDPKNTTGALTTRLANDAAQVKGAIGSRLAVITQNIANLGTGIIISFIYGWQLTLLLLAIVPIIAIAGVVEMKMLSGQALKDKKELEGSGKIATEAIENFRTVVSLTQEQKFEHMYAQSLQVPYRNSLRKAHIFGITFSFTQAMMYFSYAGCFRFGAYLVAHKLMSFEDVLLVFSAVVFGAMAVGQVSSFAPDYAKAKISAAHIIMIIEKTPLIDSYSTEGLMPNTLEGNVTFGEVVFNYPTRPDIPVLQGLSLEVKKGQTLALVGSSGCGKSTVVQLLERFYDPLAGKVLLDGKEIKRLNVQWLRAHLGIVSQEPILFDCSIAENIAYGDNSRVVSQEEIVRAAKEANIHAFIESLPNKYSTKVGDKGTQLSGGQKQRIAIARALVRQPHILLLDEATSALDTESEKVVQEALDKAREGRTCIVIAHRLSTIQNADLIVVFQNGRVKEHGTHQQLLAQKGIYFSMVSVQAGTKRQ

Question: How did the “inducer of CYP1A2” value (CYP1A2) turn out when `COc1cc(N2CCC3(CCN(C)CC3)CC2)ccc1Nc1ncc(Cl)c(Nc2ccccc2P(C)(C)=O)n1` [Iruplinalkib] was run?
Answer: The value was “not an inducer”.

Question: What about the “P-gp inhibitor” value (P-gp; Caco-2) of the same compound?
Answer: The value was “strong inhibitor”.

Question: What about the inhibition at 0.1 μM (P-gp; [1]) of the same compound?
Answer: Its inhibition at 0.1 μM is -30.9%.

Question: What about the inhibition at 0.3 μM (P-gp; [1]) of the same compound?
Answer: Its inhibition at 0.3 μM is 3.97%.

Question: What about the inhibition at 1 μM (P-gp; [1]) of the same compound?
Answer: The inhibition at 1 μM was -13.2%.

Question: And the inhibition at 3 μM (P-gp; [1])?
Answer: The inhibition at 3 μM was -19.1%.

Question: What about the inhibition at 10 µM (P-gp; [1]) of the same compound?
Answer: The inhibition at 10 µM was 89.8%.

Question: What about the inhibition at 30 μM (P-gp; [1]) of the same compound?
Answer: Its inhibition at 30 μM is 98.7%.

Question: And the “efflux inhibitor of MRP2” value (MRP2)?
Answer: Its value is “not an efflux inhibitor”.

Question: What about the inhibition at 0.1 μM (MRP2; probe CDCF 5 μM, MRP2, substrate CDCF 5 μM, inhibitor 0.1 μM, read-out: Inhibition rate) of the same compound?
Answer: Its inhibition at 0.1 μM is -7.3%.

Question: What about the inhibition at 0.3 μM (MRP2; probe CDCF 5 μM, MRP2, substrate CDCF 5 μM, inhibitor 0.3 μM, read-out: Inhibition rate) of the same compound?
Answer: Its inhibition at 0.3 μM is -8.8%.

Question: What about the inhibition at 1 μM (MRP2; probe CDCF 5 μM, MRP2, substrate CDCF 5 μM, inhibitor 1 μM, read-out: Inhibition rate) of the same compound?
Answer: The inhibition at 1 μM was -4.5%.

Question: And the inhibition at 3 μM (MRP2; probe CDCF 5 μM, MRP2, substrate CDCF 5 μM, inhibitor 3 μM, read-out: Inhibition rate)?
Answer: Its inhibition at 3 μM is -4.2%.

Question: And the inhibition at 10 µM (MRP2; probe CDCF, MRP2, substrate CDCF 5 μM, inhibitor 10 μM, read-out: Inhibition rate)?
Answer: The inhibition at 10 µM was -3.8%.

Question: And the inhibition at 30 μM (MRP2; probe CDCF, MRP2, substrate CDCF 5 μM, inhibitor 30 μM, read-out: Inhibition rate)?
Answer: Its inhibition at 30 μM is -2.8%.

Question: What about the inhibition at 100 μM (MRP2; probe CDCF, MRP2, substrate CDCF 5 μM, inhibitor 100 μM, read-out: Inhibition rate) of the same compound?
Answer: Its inhibition at 100 μM is -7.3%.

Question: And the “uptake substrate of OAT1” value (OAT1; HEK293)?
Answer: Its value is “not an uptake substrate”.

Question: And the “Uptake transport activity, Mean” value (OAT1; [2])?
Answer: Its value is 313.6 pmol/mg protein/min.

Question: And the “Uptake transport activity, Repeat 1 / Repeat 2” value (OAT1; [2])?
Answer: The value was 302.7 pmol/mg protein/min and 324.5 pmol/mg protein/min.

Question: And the “Uptake transport activity, Mean” value (OAT1; [3])?
Answer: Its value is 289.1 pmol/mg protein/min.

Question: And the “Uptake transport activity, Repeat 1 / Repeat 2” value (OAT1; [3])?
Answer: Its value is 285.7 pmol/mg protein/min and 292.5 pmol/mg protein/min.

Question: And the “Ratio of uptake transit activity” value (OAT1; [4])?
Answer: The value was 0.92.

Question: What about the “Uptake transport activity, Net value” (OAT1; [4]) of the same compound?
Answer: The value was -24.51 pmol/mg protein/min.
